Assay results from patent US20260315483A1, “HETEROCYCLIC COMPOUNDS AS TRIGGERING RECEPTOR EXPRESSED ON MYELOID CELLS 2 AGONISTS AND METHODS OF USE” (VIGIL NEUROSCIENCE, INC., priority 2023, published 2026).

Biological target: T1, human TREM2 (Homo sapiens, UniProt Q9NZC2)
T1 construct: expressed in transfected cells; host or cells: HEK293T-hTREM2 cells (HEK cell line expressing human TREM2 and DAP12)
Experiment: In vitro measurement of TREM2 activity using cellular phosphorylation of spleen tyrosine kinase (Syk), AlphaLisa, HEK293T-hTREM2 cells
Format: cell-based
Details: HEK293T cells expressing human TREM2 and DAP12, 45 min at room temperature
Procedure: In Vitro Measurement of Triggering Receptor Expressed on Myeloid Cells 2 Activity Using Cellular Phosphorylation of Spleen Tyrosine Kinase (“Syk”) Assays
Measurement of TREM2 agonist potency was done using a HEK cell line expressing human TREM2 and DAP12 (HEK293T-hTREM2 cells). Binding of small molecules to, and activation of, TREM2 increases the phosphorylation of Syk. The resultant levels of Syk phosphorylation are measured using a commercial AlphaLisa reagent kit. To perform the assay, HEK-hTREM2 cells were plated at 14,000 cells per well in a 384 well plate, in 25 μL of complete growth media and incubated at 37° C., 5% CO2 for 20-24 hours.
Prior to the assay, test compounds were diluted in the 384 well plates in assay buffer and allowed to equilibrate for 30 minutes. Growth media was removed from cell plates by inversion on blotting paper, and 25 μL of test articles in assay buffer was added to cells. Cells were incubated for 45 minutes at room temperature. After 45 minutes, assay buffer was removed and 10 μL of lysis buffer was added. Plates were shaken for 20 minutes at 350 RPM at room temperature. After complete lysis, AlphaLisa reagents were added to the lysate, and fluourescence intensity was measured using a Perkin Elmer Envision plate reader. Intensities were used to generate a standard curve, and % activation was calculated. Curve fitting was performed using Prism v9 software, log(agonist) vs response—variable slope (four parameters), and EC50s were calculated from the curve fit.
The results presented in Tables D and D-2 have been generated with the in vitro assay described above. This assay may be used to test any of the compounds described herein to assess and characterize a compound's ability to act as an agonist of TREM2.

T1 sequence (Q9NZC2 19-230): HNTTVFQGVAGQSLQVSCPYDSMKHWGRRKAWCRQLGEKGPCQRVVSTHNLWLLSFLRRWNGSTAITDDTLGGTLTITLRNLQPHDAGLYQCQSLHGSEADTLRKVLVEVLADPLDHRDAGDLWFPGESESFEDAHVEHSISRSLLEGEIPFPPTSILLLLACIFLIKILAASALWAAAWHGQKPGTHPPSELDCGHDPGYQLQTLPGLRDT
T1 sequence (O43914 22-113 partner): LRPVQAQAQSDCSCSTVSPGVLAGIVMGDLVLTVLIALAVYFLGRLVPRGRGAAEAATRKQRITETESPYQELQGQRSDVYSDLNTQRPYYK

Structure (SMILES)	EC50 (Table D)	EC50 (Table D-2)
Cc1c(F)ccc(-c2cc(N3C[C@@H](C)O[C@@H](c4cnn(C5CC5)c4)C3)nc3ncnn23)c1F [compound 132, (2S,6R)-2-(1-cyclopropyl-1H-pyrazol-4-yl)-4-(7-(2,4-difluoro-3-methylphenyl)-[1,2,4]triazolo[1,5-a]pyrimidin-5-yl)-6-methylmorpholine]	500 to 3000 nM	
Cc1cn2c(-c3ccc(C(F)(F)F)cc3F)nc([C@H]3CCO[C@@H](c4cnn(C5CC5)c4)C3)cc2n1 [compound 133, 7-((2R,4S)-2-(1-cyclopropyl-1H-pyrazol-4-yl)tetrahydro-2H-pyran-4-yl)-5-(2-fluoro-4-(trifluoromethyl)phenyl)-2-methylimidazo[1,2-c]pyrimidine]	50 to 500 nM	
Cc1cn2c(-c3ccc(Cl)cc3F)nc(N3C[C@@H](C)O[C@@H](c4cnn(C5CC5)c4)C3)cc2n1 [compound 134, (2S,6R)-4-(5-(4-chloro-2-fluorophenyl)-2-methylimidazo[1,2-c]pyrimidin-7-yl)-2-(1-cyclopropyl-1H-pyrazol-4-yl)-6-methylmorpholine]	50 to 500 nM	
CN1Cc2c(cc(N3CCO[C@@H](c4cnn(C)c4)C3)nc2-c2ccc(Cl)cc2F)C1=O [compound 200]		3000 to 100000 nM
Cc1cc([C@H]2CN(c3cc4c(c(-c5ccc(Cl)cc5F)n3)CN(C)C4=O)CCO2)ccn1 [compound 201]		500 to 3000 nM
CN1Cc2c(cc(N3CCO[C@@H](c4cnn(C)c4)C3)nc2-c2ccc(F)cc2F)C1=O [compound 202]		500 to 3000 nM
Cc1cc([C@H]2CN(c3cc4c(c(-c5ccc(F)cc5F)n3)CN(C)C4=O)CCO2)ccn1 [compound 203]		3000 to 100000 nM
CCN1Cc2c(cc(N3CCO[C@@H](c4cnn(C)c4)C3)nc2-c2ccc(Cl)cc2F)C1=O [compound 204]		50 to 500 nM
CC(C)N1Cc2c(cc(N3CCO[C@@H](c4cnn(C)c4)C3)nc2-c2ccc(Cl)cc2F)C1=O [compound 205]		500 to 3000 nM
C[C@H]1CN(c2cc3c(c(-c4ccc(Cl)cc4F)n2)CN(C)C3=O)CCO1 [compound 206]		500 to 3000 nM
CN1C(=O)c2cc(-c3ccc(Cl)cc3F)nc(N3CCO[C@@H](c4cnn(C)c4)C3)c2C1(C)C [compound 207]		3000 to 100000 nM
CN1C(=O)c2cc(N3CCO[C@@H](c4cnn(C)c4)C3)nc(-c3ccc(Cl)cc3F)c2C1(C)C [compound 208]		3000 to 100000 nM
C[C@@H]1c2c(cc(N3CCO[C@@H](c4cnn(C)c4)C3)nc2-c2ccc(Cl)cc2F)C(=O)N1C [compound 209]		3000 to 100000 nM
CN1Cc2c(cc(-c3ccc(Cl)cc3F)nc2-c2ccc(Cl)cc2F)C1=O [compound 210]		3000 to 100000 nM
C[C@H]1c2c(cc(-c3ccc(Cl)cc3F)nc2-c2ccc(Cl)cc2F)C(=O)N1C [compound 211]		3000 to 100000 nM
CN1Cc2c(cc(N3CCO[C@@H](c4cnn(C5CC5)c4)C3)nc2-c2ccc(Cl)cc2F)C1=O [compound 212]		50 to 500 nM

Structure (SMILES)	EC50 (Table D)	EC50 (Table D-2)
Cc1cc([C@H]2CN(c3cc4c(c(-c5ccc(Cl)cc5F)n3)C(C)N(C)C4=O)CCO2)ccn1 (stereo partly shown) [compound 213]		3000 to 100000 nM
Cc1cc([C@H]2CN(c3cc4c(c(-c5ccc(Cl)cc5F)n3)[C@@H](C)N(C)C4=O)CCO2)ccn1 [compound 214]		3000 to 100000 nM
Cc1cc([C@H]2CN(c3cc4c(c(-c5ccc(Cl)cc5F)n3)[C@H](C)N(C)C4=O)CCO2)ccn1 [compound 215]		3000 to 100000 nM
CN1Cc2c(cc(N3CCO[C@@H](c4cnn(C)c4)C3)nc2C2CC(C(F)(F)F)C2)C1=O (stereo partly shown) [compound 216]		3000 to 100000 nM
Cc1cc([C@H]2CN(c3cc4c(c(-c5ccc(Cl)cc5F)n3)CN(C)C4=O)CCO2)cnn1 [compound 217]		500 to 3000 nM
CN1C(=O)c2cc([C@@H]3CCO[C@H](c4cnn(C5CC5)c4)C3)nc(-c3ccc(F)cc3F)c2C1=O [compound 218]		500 to 3000 nM
CN1C(=O)c2cc([C@H]3CCO[C@@H](c4cnn(C5CC5)c4)C3)nc(-c3ccc(F)cc3F)c2C1=O [compound 219]		500 to 3000 nM
C[C@@H]1CN(c2cc3c(c(C4CC(C(F)(F)F)C4)n2)CN(C)C3=O)C[C@H](c2cnn(C3CC3)c2)O1 (stereo partly shown) [compound 220]		50 to 500 nM
C[C@@H]1CN(c2cc3c(c(-c4ccc(C(F)(F)F)cc4F)n2)CN(C)C3=O)C[C@H](c2cnn(C3CC3)c2)O1 [compound 221]		≤ 50 nM
CN1Cc2c(cc(C3CCO[C@@H](c4cnn(C5CC5)c4)C3)nc2-c2ccc(C(F)(F)F)cc2F)C1=O (stereo partly shown) [compound 222]		50 to 500 nM
CN1Cc2c(cc([C@@H]3CCO[C@@H](c4cnn(C5CC5)c4)C3)nc2-c2ccc(C(F)(F)F)cc2F)C1=O [compound 223]		50 to 500 nM
CN1Cc2c(cc([C@H]3CCO[C@@H](c4cnn(C5CC5)c4)C3)nc2-c2ccc(C(F)(F)F)cc2F)C1=O [compound 224]		50 to 500 nM
CN1Cc2c(cc(C3CCO[C@@H](c4cnn(C5CC5)c4)C3)nc2C2CC(C(F)(F)F)C2)C1=O (stereo partly shown) [compound 225]		50 to 500 nM
CN1Cc2c(cc([C@H]3CCO[C@@H](c4cnn(C5CC5)c4)C3)nc2C23CC(C(F)(F)F)(C2)C3)C1=O [compound 226]		50 to 500 nM
C[C@@H]1CN(c2cc3c(c(-c4ccc(C(F)(F)F)cc4F)n2)CN(c2ccn(C)n2)C3=O)C[C@H](c2cnn(C3CC3)c2)O1 [compound 228, 6-((2S,6R)-2-(1-cyclopropyl-1H-pyrazol-4-yl)-6-methylmorpholino)-4-(2-fluoro-4-(trifluoromethyl)phenyl)-2-(1-methyl-1H-pyrazol-3-yl)-2,3-dihydro-1H-pyrrolo[3,4-c]pyridin-1-one]		≤ 50 nM
